Measurements from patent US20180267021A1, “METHODS AND DEVICES FOR ASSESSING CELL PROPERTIES UNDER CONTROLLED GAS ENVIRONMENTS” (Carnegie Mellon University, priority 2014, published 2018).
“Also recorded” adds a separate entry of the source.

What was measured:
sickle RBCs [1] = assay: Kinetics of cell sickling and unsickling under transient hypoxia, patient samples on-HU vs off-HU; type: cell-based, human
Experimental: (§1) Cell sickling was measured using a double-layer device with a cell channel (5 μm high), a gas channel (100 μm high) and an in-between PDMS film 150 μm in thickness (FIG. 1A). The O2 concentration was controlled by exchanging gas flow in the channel through the PDMS membrane that is gas-permeable (33). […] Sickle RBCs typically form spiky edges and dark coarse texture due to intracellular HbS polymerization, the visual identification of which was enhanced by a band-pass filter (FIG. 1B). Thus the sickled cells were defined as those obviously distorted from their original shape and texture under Oxy state (O2 concentration 20%) to the DeOxy state (O2 concentration <5%). […] The delay time of cell unsickling was defined as the time elapsed between the initiation of reoxygenation (ReOxy) and the point when the RBC fully recovered its pre-sickle morphology in a visibly identifiable manner.
Kinetics of individual cell sickling and unsickling under transient hypoxia conditions was quantified by the delay time and the maximum sickled fraction on 25 SCD patient samples: 7 patients without HU therapy (off-HU) and 18 patients with HU therapy (on-HU) (see patient's HU status in Materials and Methods Text). Short-term and a long-term hypoxia conditions were created to simulate normal and retarded transit scenarios in microvasculature (FIGS. 2A-B). Representative cell sickling profiles upon changes in O2 concentration are shown (FIG. 2C). Compared to the relatively long sickling process (>100 s for sickled fraction rising from zero to a saturated, maximum level), the unsickling process after ReOxy was much faster (<20 s for sickled fraction reducing from the saturated level to zero), disregarding the small discrepancy in the DeOxy and ReOxy rates (<20 s). This observation applied to all patient sample.
(§2) For the Aes-103 testing, blood samples from 3 on-HU and 3 off-HU patients were incubated with Aes-103 at different concentrations (0.5, 1, 2, and 5 mM) for one hour at 37° C. before the in vitro sickling test. […] The fractionation gradient was built up with four layers of 2.5 ml Optiprep-DPBS medium of densities of 1.081, 1.091, 1.100 and 1.111 g/ml, respectively. 1 ml blood sample was washed twice with Phosphate Buffered Saline (PBS) at 2000 rpm for 5 minutes at 21° C. and diluted into 70-80% hematocrit. […] The four fractions, Density 1 through Density 4 have mean densities of 1.086±0.005 g/ml, 1.095±0.005 g/ml, 1.105±0.005 g/ml, and >1.111 g/ml, respectively. Fractionated sickle RBCs were then suspended with RPMI-1640 containing 1% w/v Bovine Serum Albumin (BSA) (Sigma-Aldrich, St Louis, Mo.) and stored at 4° C. until shortly before use to avoid metabolic depletion.

sickle RBCs [2] = assay: Kinetics of cell sickling of density-fractionated sickle RBC populations, on-HU vs off-HU; type: cell-based, human
Source text: In order to quantify the effects of cell density on the kinetics of cell sickling and unsickling, we categorized sickle RBCs into four populations with average cell densities of 1.086±0.005 g/ml (Density 1), 1.095±0.005 g/ml (Density 2), 1.105±0.005 g/ml (Density 3), and >1.111 g/ml (Density 4) for 20 SCD samples from 6 off-HU patients and 14 on-HU patients. The majority of sickle RBCs fell within Density 2 and Density 3 (FIG. 8A). We noticed a significant difference in sickling growth curve among different density populations of individual blood samples under both short-term and long-term DeOxy states (FIGS. 8B and C). Results of delay time of cell sickling and sickled fraction were examined along with cell density and the patient's HU status. Delay time of cell sickling decreased with cell density (FIG. 5A), which can be rationalized by the hydration state of the cells (39, 40).
as §2
(§3) As Ru(dpp)3C12 is water insoluble, it was dissolved in Acetone-RPMI (volume ratio of 1:2) at 0.8 mg/ml and injected into the cell channel. […] Short-term and long-term hypoxia conditions held the durations of DeOxy state (O2 concentration<5%) about 25 s and 220 s, respectively.

sickle RBCs [3] = assay: Individual sickle RBC rheology through micro-gates under transient hypoxia, on-HU vs off-HU
sickle RBCs [4] = assay: Microfluidic hypoxia assay: anti-sickling effect of Aes-103 on sickle RBCs incubated in vitro; type: cell-based, human
Experimental: as §1, §2, §3

Compound | delay time of sickling, on-HU group compared with off-HU group (sickle RBCs [1]; 5% sickled fraction, p<0.01) | delay time of cell sickling, six cases (sickle RBCs [1]; 10% sickled fraction, six cases, suggesting beneficial effect of HU therapy) | influence of HU therapy on delay time of cell sickling to saturated sickled fraction (sickle RBCs [1]; long-term DeOxy state, p<0.02) | delay time of cell unsickling, on-HU vs off-HU (sickle RBCs [1]; long-term DeOxy state, p=0.24) | maximum sickled fraction (sickle RBCs [1]; short-term DeOxy state (O2 <5% for 25 s), all on-HU samples, significantly lower than off-HU (p=0.03)) | delay time for unsickling, on-HU vs off-HU (sickle RBCs [2]; Densities 1 through 3, long-term DeOxy) | delay time of cell sickling with HU therapy, Densities 3 and 4 (sickle RBCs [2]; Densities 3 and 4, p=0.01 and p=0.06) | mean delay time of cell sickling, on-HU vs off-HU cases (sickle RBCs [2]; density-fractionated populations, short-term DeOxy, p<0.02) | sickled fraction with HU therapy (sickle RBCs [2]; short-term hypoxia, particularly Densities 3 and 4 (p=0.01 and p=0.001)) | capillary obstruction ratio, on-HU vs off-HU (sickle RBCs [3]; 7 on-HU and 7 off-HU patient samples, DeOxy state, p=0.04) | cell velocity, on-HU vs off-HU (sickle RBCs [3]; individual RBCs through periodic micro-gates) | change in cell sickling from baseline (sickle RBCs [4]; 2 mM Aes-103 incubation, each patient sample) | maximum sickled fraction (sickle RBCs [4]; 5 mM Aes-103, one hour at 37° C., hypoxia 2% O2, 3 on-HU and 3 off-HU patient samples) | sickled fraction of one patient sample (sickle RBCs [4]; 5 mM Aes-103, one patient sample) | dependence of sickled fraction on Aes-103 concentration (anti-sickling effect) (sickle RBCs [4]; Aes-103 0.5-5 mM, long-term hypoxia)
NC(=O)NO [HU, hydroxyurea] | significantly longer | > 60 s | statistically significant | no significant difference | below 15% | did not vary significantly | marked extension | statistically higher | significantly suppressed | significantly lower | lower than those for the off-HU group | – | – | – | –
O=Cc1ccc(CO)o1 [Aes-103, 5-hydroxymethylfurfural] | – | – | – | – | – | – | – | – | – | – | – | significant decrease in cell sickling from its baseline | < 5% | nearly zero | strong correlation with the drug concentration; also recorded: decreased with drug concentration; also recorded: dosage-dependent manner
